Consider 29 compounds from ChEMBL document CHEMBL3352473, “Synthesis and evaluation of imidazole-4,5- and pyrazine-2,3-dicarboxamides targeting dengue and yellow fever virus” (Eur J Med Chem, 2014).

A short description of data set [1]: Selectivity index, ratio of CC50 for green monkey Vero-B cells to EC50 for Yellow fever virus infected in green monkey Vero-B cells. The format is toxicity, cell-based. As to conditions: read-out: Ratio CC50/EC50.
Data set [2] can be described thus: Selectivity index, ratio of CC50 for green monkey Vero-B cells to EC50 for Dengue virus infected in green monkey Vero-B cells. The format is toxicity, cell-based. Particulars: read-out: Ratio CC50/EC50.

Consider `Cc1ccc(NC(=O)c2nccnc2C(=O)Nc2ccc(C)cc2-c2cccnc2)cc1`, for which the selectivity ratio in data set [1] is 4.1; in data set [2], 4.5. As for `Cc1ccc(NC(=O)c2nccnc2C(=O)NCc2ccc(-c3ccncc3)cc2)cc1`, the selectivity ratio in data set [1] stood at 3; in data set [2] it was 4.5. As to `Cc1ccc(NC(=O)c2nc[nH]c2C(=O)Nc2ccc(F)cc2)c(-c2ccco2)c1`, the selectivity ratio in data set [2] was 1.

Regarding `Cc1ccc(NC(=O)c2nccnc2C(=O)Nc2ccc(F)cc2)c(-c2cccnc2)c1`, the selectivity ratio in data set [1] is 9; in data set [2], greater than 125.

Consider `Cc1ccc(NC(=O)c2nccnc2C(=O)Nc2ccccc2-c2ccncc2)cc1`, for which the selectivity ratio in data set [1] amounted to 10; in data set [2], 26. On the same counts, the results for `O=C(NCc1ccc(-c2ccncc2)cc1)c1nccnc1C(=O)Nc1ccc(F)cc1` are 16 and greater than 125. `Cc1ccc(NC(=O)c2[nH]cnc2C(=O)Nc2ccc(C)cc2-c2ccco2)cc1`: in data set [2], the selectivity ratio was determined as 36.2. Still for that read-out and setting: to `Cc1ccc(NC(=O)c2nc[nH]c2C(=O)NCCc2ccc(F)cc2)c(-c2ccco2)c1` belongs 30.9. Regarding `O=C(NCc1ccc(-c2ccncc2)cc1)c1nc[nH]c1C(=O)Nc1ccc(F)cc1`, the selectivity ratio in data set [1] and in data set [2] was 1 throughout. As for `Cc1ccc(NC(=O)c2[nH]cnc2C(=O)Nc2ccc(C)cc2-c2ccsc2)cc1`, the selectivity ratio in data set [1] was found to be 1; in data set [2], 24.5.

On to `O=C(NCc1ccc(-c2cccnc2)cc1)c1nc[nH]c1C(=O)Nc1ccc(F)cc1`, for which the results for the selectivity ratio in data set [1] and in data set [2] were 10 and 2.85, respectively.

`O=C(NCc1ccccc1-c1ccncc1)c1nc[nH]c1C(=O)Nc1ccc(F)cc1`: the figures for the selectivity ratio in data set [1] and in data set [2] were 31 and 26, respectively.

For the compound `O=C(NCc1ccccc1-c1ccsc1)c1nc[nH]c1C(=O)Nc1ccc(F)cc1`, the selectivity ratio in data set [1] came to 13.2; in data set [2], 1.95. Take `Cc1ccc(NC(=O)c2nccnc2C(=O)Nc2ccccc2-c2cccnc2)cc1`: the figures for the selectivity ratio in data set [1] and in data set [2] were 1 and 8.8, respectively. On the same counts, the results for `Cc1ccc(NC(=O)c2nc[nH]c2C(=O)Nc2ccc(F)cc2)c(-c2ccsc2)c1` are 1 and 2.4. For `Cc1ccc(NC(=O)c2nccnc2C(=O)Nc2ccc(F)cc2)c(-c2ccncc2)c1`, in that order: 2.6 and 1. For `O=C(NCc1ccccc1-c1ccncc1)c1nccnc1C(=O)Nc1ccc(F)cc1`, in data set [2], the selectivity ratio was found to be 2.9.

In the case of `Cc1ccc(NC(=O)c2nc[nH]c2C(=O)NCc2ccccc2)c(-c2ccco2)c1`, in data set [2], the selectivity ratio turned out to be 1. Regarding `O=C(NCc1ccc(-c2cccnc2)cc1)c1nccnc1C(=O)Nc1ccc(F)cc1`, the selectivity ratio in data set [1] came to 13; in data set [2], 38.5. On the same counts, the results for `O=C(Nc1ccc(F)cc1)c1nccnc1C(=O)Nc1ccccc1-c1cccnc1` are 2.5 and 5.2.

Regarding `Cc1ccc(NC(=O)c2nccnc2C(=O)NCc2ccc(-c3cccnc3)cc2)cc1`, the selectivity ratio is 1.7 in data set [1] and 17.2 in data set [2].

As for `Cc1ccc(NC(=O)c2nccnc2C(=O)Nc2ccc(C)cc2-c2ccncc2)cc1`, the selectivity ratio is 3.8 in data set [1] and 10 in data set [2]. For `Cc1cc(-c2ccccc2NC(=O)c2nc[nH]c2C(=O)Nc2ccc(F)cc2)[nH]n1`, in that order: 67 and 3.6.

As for `Cc1ccc(NC(=O)c2nc[nH]c2C(=O)Nc2ccc(F)cc2)c(-c2cc(C)n[nH]2)c1`, the selectivity ratio stood at 34.5 in data set [1] and 48 in data set [2]. On the same counts, the results for `O=C(NCc1ccc(-c2ccsc2)cc1)c1nc[nH]c1C(=O)Nc1ccc(F)cc1` are 4.13 and 0.6. On to `O=C(Nc1ccc(F)cc1)c1nccnc1C(=O)Nc1ccccc1-c1ccncc1`, for which the results for the selectivity ratio in data set [1] and in data set [2] were 15 and 10.4, respectively.

Regarding `Cc1cnc(NC(=O)c2[nH]cnc2C(=O)Nc2ccccc2)c(-c2ccc(C)s2)c1`, the selectivity ratio in data set [1] worked out at 0.97; in data set [2], 0.22.

Regarding `Cc1ccc(NC(=O)c2nccnc2C(=O)NCc2ccccc2-c2ccncc2)cc1`, the selectivity ratio came to 1.7 in data set [1] and 2.04 in data set [2]. On the same counts, the results for `Cc1ccc(NC(=O)c2nc[nH]c2C(=O)Nc2ccccc2)c(-c2ccsc2)c1` are 13 and 1.
